Calls of active or inactive are those of the source.
Experiments:
Estrogen receptor = molecular target: T1, Estrogen receptor (Homo sapiens, UniProt P03372);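 note: potency for inhibiting coactivator peptide recruitment to the receptor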
T1 sequence (P03372 whole entry): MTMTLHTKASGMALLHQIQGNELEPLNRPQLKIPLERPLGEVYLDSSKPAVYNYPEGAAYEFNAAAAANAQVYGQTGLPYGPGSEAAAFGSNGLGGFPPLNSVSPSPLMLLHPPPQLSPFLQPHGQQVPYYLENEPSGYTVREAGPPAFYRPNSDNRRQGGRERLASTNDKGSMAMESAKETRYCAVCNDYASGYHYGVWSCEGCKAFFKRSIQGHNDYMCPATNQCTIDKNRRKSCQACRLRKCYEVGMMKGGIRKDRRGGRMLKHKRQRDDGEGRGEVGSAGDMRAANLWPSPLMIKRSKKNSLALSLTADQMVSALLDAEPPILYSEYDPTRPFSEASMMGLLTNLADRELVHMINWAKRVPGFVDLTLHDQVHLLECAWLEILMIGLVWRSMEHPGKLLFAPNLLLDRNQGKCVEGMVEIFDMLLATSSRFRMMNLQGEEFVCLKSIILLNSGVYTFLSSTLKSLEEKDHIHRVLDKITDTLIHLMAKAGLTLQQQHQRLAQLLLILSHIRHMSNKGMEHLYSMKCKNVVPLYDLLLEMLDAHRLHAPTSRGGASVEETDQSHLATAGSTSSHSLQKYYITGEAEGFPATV

[1] = molecular target: Voltage-dependent T-type calcium channel subunit alpha-1H (Homo sapiens, UniProt O95180); assay type: functional;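 note: channel activity triggered by adding a high calcium stimulation buffer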
Sequence of Voltage-dependent T-type calcium channel subunit alpha-1H (O95180 whole entry): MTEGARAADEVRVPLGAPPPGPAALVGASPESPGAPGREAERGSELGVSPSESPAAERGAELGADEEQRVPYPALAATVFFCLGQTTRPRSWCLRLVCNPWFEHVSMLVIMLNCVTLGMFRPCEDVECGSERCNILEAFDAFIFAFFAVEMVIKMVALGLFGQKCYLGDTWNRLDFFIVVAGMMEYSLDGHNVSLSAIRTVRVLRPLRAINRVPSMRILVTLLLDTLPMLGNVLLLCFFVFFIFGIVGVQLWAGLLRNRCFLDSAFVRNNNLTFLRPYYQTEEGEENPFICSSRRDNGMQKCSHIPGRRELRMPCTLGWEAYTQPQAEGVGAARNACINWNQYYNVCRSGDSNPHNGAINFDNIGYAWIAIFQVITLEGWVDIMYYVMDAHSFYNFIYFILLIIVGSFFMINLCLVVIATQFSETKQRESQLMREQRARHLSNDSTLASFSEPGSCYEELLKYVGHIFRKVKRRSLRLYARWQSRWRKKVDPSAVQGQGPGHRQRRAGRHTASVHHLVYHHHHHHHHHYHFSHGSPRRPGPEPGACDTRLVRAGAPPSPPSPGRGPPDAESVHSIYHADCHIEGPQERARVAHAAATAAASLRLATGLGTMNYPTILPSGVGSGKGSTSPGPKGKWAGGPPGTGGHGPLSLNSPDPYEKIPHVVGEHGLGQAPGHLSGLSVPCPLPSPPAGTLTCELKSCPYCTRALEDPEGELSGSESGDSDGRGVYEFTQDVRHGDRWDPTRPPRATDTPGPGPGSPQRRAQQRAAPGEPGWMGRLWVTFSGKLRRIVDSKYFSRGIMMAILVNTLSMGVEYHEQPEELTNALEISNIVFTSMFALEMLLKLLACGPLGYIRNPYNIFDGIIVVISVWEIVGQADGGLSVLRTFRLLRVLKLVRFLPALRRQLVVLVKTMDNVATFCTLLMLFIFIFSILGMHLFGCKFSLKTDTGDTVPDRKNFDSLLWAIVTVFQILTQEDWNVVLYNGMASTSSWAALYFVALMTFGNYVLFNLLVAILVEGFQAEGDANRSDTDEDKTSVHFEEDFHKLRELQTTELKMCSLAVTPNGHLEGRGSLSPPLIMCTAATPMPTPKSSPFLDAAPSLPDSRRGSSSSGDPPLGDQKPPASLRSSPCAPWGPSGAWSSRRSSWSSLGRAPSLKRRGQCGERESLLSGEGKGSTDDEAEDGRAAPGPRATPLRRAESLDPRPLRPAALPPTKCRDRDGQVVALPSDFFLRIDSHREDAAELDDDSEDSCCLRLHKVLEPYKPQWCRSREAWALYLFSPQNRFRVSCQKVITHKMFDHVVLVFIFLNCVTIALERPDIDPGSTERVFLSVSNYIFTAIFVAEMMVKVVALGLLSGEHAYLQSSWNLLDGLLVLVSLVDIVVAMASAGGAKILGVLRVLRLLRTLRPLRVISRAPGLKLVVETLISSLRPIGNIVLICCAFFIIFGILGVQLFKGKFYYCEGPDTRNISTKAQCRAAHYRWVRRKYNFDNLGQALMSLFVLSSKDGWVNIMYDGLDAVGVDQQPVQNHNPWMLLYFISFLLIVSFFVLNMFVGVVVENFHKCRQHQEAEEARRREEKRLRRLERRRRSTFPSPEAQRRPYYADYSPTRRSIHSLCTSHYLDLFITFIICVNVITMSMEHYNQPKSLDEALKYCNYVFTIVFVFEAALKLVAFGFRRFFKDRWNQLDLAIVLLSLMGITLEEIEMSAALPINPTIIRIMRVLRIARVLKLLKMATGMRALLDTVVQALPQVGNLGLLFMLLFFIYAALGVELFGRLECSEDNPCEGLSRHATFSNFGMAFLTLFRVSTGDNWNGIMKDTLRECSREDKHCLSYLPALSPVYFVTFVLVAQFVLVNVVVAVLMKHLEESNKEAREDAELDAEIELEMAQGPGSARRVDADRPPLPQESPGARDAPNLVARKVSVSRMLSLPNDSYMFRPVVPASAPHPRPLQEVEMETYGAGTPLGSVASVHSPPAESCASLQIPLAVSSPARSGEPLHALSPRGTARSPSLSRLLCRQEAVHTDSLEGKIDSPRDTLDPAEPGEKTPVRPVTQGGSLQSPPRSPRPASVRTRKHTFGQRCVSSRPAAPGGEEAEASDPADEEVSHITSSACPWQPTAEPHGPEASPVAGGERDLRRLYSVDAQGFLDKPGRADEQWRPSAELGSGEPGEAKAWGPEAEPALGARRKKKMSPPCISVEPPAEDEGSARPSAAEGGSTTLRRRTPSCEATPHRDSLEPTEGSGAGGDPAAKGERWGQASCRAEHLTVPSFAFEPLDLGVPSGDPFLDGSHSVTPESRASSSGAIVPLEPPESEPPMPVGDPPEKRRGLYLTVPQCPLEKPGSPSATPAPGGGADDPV

[2] = molecular target: T2, Short transient receptor potential channel 4 (Mus musculus, UniProt Q9QUQ5); assay: mouse TRPC4 channel activators, dose response, cell-based, HEK293 TRPC4/mu-opioid, Fluo-4 calcium (AID 434937); assay type: functional
T2 sequence (Q9QUQ5 whole entry): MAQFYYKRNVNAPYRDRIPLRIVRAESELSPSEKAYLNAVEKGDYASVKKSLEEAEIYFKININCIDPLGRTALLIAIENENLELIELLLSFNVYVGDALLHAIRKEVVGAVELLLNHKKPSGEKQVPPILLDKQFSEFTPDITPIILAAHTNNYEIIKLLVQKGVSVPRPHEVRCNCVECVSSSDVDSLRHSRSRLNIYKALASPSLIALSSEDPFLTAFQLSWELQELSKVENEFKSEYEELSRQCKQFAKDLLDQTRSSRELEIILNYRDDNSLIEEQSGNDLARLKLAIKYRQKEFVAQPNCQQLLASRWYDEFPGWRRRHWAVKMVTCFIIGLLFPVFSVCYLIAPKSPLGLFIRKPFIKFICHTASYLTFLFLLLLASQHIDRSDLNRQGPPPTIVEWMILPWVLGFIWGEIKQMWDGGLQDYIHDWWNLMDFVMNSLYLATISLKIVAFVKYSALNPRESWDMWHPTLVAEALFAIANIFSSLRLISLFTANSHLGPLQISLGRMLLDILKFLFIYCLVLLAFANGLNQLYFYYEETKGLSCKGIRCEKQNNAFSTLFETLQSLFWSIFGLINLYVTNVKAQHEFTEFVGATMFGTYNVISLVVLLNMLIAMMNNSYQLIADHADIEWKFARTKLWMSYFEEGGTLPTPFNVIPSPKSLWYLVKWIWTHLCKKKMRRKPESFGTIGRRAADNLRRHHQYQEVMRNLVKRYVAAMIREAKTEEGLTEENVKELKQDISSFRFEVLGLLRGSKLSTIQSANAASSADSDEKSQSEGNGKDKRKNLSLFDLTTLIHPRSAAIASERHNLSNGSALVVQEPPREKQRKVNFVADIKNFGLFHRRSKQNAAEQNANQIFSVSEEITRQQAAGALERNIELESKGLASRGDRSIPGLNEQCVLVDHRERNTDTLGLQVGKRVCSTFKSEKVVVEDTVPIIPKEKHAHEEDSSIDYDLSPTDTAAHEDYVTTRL

SUMO-activating enzyme [3] = molecular target: T3, SUMO-activating enzyme (Homo sapiens, UniProt Q9UBT2); assay: SUMOylation inhibitor hit validation, confirmation, SUMOylation inhibitor project, biochemical, AlphaScreen (AID 2018); assay type: functional
T3 sequence (Q9UBE0 whole entry): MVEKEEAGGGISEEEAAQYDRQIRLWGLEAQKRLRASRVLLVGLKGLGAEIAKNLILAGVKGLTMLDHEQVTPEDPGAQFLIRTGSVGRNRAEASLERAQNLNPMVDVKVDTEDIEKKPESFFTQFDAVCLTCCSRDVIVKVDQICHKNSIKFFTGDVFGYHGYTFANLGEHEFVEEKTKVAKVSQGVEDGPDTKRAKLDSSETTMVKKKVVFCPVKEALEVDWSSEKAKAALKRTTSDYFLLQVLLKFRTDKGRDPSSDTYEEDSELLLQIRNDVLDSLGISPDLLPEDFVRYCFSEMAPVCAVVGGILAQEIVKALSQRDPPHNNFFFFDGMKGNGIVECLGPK
T3 sequence (Q9UBT2 whole entry): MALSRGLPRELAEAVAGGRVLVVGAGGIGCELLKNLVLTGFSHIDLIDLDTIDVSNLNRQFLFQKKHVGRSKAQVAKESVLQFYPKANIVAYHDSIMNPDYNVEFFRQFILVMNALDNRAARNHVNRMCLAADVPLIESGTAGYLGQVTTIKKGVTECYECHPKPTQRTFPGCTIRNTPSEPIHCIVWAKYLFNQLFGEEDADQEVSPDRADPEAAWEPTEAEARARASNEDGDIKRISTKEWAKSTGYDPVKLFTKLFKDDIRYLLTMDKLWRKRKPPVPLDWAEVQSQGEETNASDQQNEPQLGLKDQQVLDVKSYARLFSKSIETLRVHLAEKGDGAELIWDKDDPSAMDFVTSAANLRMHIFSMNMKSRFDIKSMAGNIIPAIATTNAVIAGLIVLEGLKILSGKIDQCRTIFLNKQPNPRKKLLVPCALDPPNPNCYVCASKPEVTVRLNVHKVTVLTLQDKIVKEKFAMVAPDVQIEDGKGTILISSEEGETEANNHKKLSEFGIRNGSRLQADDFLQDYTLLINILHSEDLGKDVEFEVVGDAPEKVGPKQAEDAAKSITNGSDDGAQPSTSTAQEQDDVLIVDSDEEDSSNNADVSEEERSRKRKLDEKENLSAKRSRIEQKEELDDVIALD

SUMO-activating enzyme [4] = molecular target: T3, SUMO-activating enzyme; assay: inhibitors of in vitro SUMOylation cascade, primary screen, biochemical, HTRF, uHTS (AID 2006); assay type: protein-complex assay
[5] = molecular target: Voltage-gated inwardly rectifying potassium channel KCNH2 (Homo sapiens, UniProt Q12809); details: Potency;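 note: confirmatory quantitative high-throughput screen measuring inhibition of hERG channel activity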
Sequence of Voltage-gated inwardly rectifying potassium channel KCNH2 (Q12809 whole entry): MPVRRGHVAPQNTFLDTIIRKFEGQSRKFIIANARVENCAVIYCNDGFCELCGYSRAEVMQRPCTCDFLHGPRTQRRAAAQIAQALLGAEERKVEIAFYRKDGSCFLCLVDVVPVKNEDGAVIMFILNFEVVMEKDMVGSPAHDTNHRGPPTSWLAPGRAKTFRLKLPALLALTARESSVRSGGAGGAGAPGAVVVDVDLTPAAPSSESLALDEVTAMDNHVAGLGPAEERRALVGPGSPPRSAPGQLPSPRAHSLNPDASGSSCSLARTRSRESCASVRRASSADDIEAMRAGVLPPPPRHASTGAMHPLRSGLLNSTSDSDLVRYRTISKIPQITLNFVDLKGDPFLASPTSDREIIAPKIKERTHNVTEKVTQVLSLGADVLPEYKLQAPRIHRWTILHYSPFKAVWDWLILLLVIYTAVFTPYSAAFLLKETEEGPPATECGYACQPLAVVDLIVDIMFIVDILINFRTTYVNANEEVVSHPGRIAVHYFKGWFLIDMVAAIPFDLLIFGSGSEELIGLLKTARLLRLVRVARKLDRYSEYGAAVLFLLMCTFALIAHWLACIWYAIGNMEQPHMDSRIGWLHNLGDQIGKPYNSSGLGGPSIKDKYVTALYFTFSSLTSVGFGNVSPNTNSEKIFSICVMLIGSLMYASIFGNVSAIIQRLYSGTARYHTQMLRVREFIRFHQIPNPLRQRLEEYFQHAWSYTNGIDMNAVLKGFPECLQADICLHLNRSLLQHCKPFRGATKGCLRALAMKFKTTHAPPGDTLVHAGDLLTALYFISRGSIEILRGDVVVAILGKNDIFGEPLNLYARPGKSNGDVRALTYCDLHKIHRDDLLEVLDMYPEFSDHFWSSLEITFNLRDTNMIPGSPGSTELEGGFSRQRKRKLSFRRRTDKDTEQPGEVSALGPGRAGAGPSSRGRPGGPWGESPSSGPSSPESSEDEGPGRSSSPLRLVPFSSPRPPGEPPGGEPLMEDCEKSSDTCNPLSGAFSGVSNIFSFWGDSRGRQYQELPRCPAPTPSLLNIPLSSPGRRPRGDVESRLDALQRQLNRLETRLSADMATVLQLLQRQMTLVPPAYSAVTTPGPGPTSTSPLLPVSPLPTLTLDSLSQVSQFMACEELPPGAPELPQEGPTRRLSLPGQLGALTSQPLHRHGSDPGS

Troponin, cardiac muscle = Troponin, cardiac muscle (Homo sapiens, UniProt P19429+P45379+P63316); assay: Fluorescence-based biochemical high throughput dose response assay for activators of the calcium sensitivity of cardiac Regulated Thin Filaments (RTF). [Related pubchem assays (depositor defined):AID493008, AID493018, AID504382, AID504383]; assay type: protein-complex assay
[6] = molecular target: T4, Lysine-specific demethylase 4C (Homo sapiens, UniProt Q9H3R0); assay: GASC-1 (JMJD2C) histone demethylase inhibitors, dose response, biochemical, DELFIA europium, cherry-picked samples (AID 488835); assay type: functional
T4 sequence (Q9H3R0 whole entry): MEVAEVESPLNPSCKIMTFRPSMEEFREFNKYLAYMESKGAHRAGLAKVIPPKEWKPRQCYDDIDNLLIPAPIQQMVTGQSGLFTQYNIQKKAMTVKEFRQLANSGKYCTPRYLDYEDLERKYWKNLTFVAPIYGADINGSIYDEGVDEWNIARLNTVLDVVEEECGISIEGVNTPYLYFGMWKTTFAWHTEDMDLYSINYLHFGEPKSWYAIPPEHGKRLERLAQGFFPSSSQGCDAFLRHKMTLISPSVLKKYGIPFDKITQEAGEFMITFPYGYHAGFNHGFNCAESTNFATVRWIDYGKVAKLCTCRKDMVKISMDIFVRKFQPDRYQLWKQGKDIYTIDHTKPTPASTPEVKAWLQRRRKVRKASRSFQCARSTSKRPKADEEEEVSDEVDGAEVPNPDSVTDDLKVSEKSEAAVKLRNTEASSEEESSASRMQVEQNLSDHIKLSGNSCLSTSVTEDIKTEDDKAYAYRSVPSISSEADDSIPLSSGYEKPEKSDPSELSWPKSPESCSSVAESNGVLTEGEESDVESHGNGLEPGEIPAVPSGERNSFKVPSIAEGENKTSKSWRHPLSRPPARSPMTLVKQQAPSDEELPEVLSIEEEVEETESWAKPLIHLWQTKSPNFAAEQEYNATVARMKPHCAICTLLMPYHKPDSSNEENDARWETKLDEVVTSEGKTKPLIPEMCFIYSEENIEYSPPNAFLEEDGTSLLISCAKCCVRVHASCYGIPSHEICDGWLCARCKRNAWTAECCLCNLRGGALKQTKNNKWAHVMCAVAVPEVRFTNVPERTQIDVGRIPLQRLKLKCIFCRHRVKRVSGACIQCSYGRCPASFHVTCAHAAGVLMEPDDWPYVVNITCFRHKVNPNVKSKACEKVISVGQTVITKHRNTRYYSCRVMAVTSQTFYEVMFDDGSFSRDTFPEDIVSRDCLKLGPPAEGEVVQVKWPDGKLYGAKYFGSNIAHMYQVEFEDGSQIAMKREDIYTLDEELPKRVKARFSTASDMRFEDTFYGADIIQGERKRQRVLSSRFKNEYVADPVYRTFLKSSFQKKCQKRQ

[7] = A549 cell cytotoxicity, dose response, cytotoxicity control, plate reader, cherry-pick, antagonist series (AID 743412); assay type: functional, cell-based
INS1 = assay: beta cell apoptosis inhibitors, cytokine rescue, dose response, luminescence, retest (AID 449756); assay type: functional, cell-based; details: Rattus norvegicus;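 note: cell death triggered by IL-1 beta plus TNF-alpha plus IFN-gamma mixture; protective hits raise ATP signal compared with cytokine alone wells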
[8] = MC4R antagonists, dose response, counter-screen for LGR2 antagonist project, cell-based, plate reader, cherry pick (AID 743444); assay type: functional;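 note: transfected HEK 293 cells stimulated with alpha-MSH peptide; potency of inhibitors of the alpha-MSH evoked signal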
[9] = HepG2 cell cytotoxicity, dose response, cytotoxicity control for non-replicating M. tuberculosis project (AID 489018); assay type: functional; details: Mycobacterium tuberculosis
[10] = HepG2 cell cytotoxicity, dose response, cytotoxicity control, plate reader, cherry-pick, antagonist series (AID 743416); assay type: functional, cell-based
cells = assay type: functional
[11] = Vero E6 cell cytotoxicity, dose response, cytotoxicity control for non-replicating M. tuberculosis project, secondary assay (AID 492998); assay type: functional, VeroE6; details: Vero C1008
[12] = THP-1 cell cytotoxicity, dose response, cytotoxicity control for non-replicating M. tuberculosis project (AID 489025); assay type: functional
[13] = HEK293 cell cytotoxicity, dose response, cytotoxicity control, plate reader, cherry-picked samples (AID 743446); assay type: functional, cell-based

## CC1Cc2ccccc2N1C(=O)CSc1nnc(NC(=O)Cc2cccs2)s1 (stereo not given)
Estrogen receptor
  IC50: 34 µM (not active)

## Cc1ccc(-c2noc(CCC(=O)N(C)c3ccccc3C)n2)cc1
[1]
  EC50: 4.56 µM (active)

## CC1(c2ccc(Cl)cc2Cl)OCC(Cn2ccnc2)O1 (stereo not given)
[2]
  EC50: 2.37 µM (active)

## Cc1c(Cl)cccc1NC(S)=NCC(c1cccnc1)N(C)C (stereo not given)
[2]
  EC50: 0.0013 µM (active)

## Cc1ccc(NC(=O)Cn2nc(C(=O)Nc3ccc(C)cc3)ccc2=O)cc1
SUMO-activating enzyme [3]
  IC50: 30.8 µM (active)
SUMO-activating enzyme [4]
  IC50: 18.3 µM (active)

## CC(C)N=C=NC(C)C
[5]
  AC50: 35.5 µM (inconclusive)

## Cc1ccnc(N/C=C(\C#N)c2nc(-c3cccc(Br)c3)cs2)c1
Troponin, cardiac muscle
  EC50: 0.761 µM (active)

## COc1cc(CNC(=O)CCCCCCC(C)C)ccc1O [DIHYDROCAPSAICIN]
[5]
  AC50: 35.5 µM (inconclusive)

## Cc1ccc(-c2csc3nc4cc(C(=O)NC5CCC(O)CC5)ccc4c(=O)n23)cc1 (stereo not given)
[6]
  AC50: 3.96 µM (active)

## COc1cc(CNCCO)cc(Cl)c1OCc1ccc(Cl)cc1Cl
[7]
  AC50: 13.9 µM (active)
INS1
  AC50: 8.94 µM (active)
[8]
  AC50: 43.2 µM (active)
[9]
  CC50: 15.1 µM (active)
[10]
  AC50: 11.2 µM (active)
cells
  IC50: 24.5 µM (active)
[11]
  CC50: 14.1 µM (active)
[12]
  CC50: 12.5 µM (active)
[13]
  AC50: 15.6 µM (active)

## CCOC(=O)/C(=C/C=C1\Sc2cc(OCC)c(OCC)cc2N1CC)C(C)=O
Troponin, cardiac muscle
  EC50: 0.165 µM (active)

From ChEMBL document CHEMBL1201862, “PubChem BioAssay data set” (2004)
